Results reported in ChEMBL document CHEMBL4732251, “Synthesis and evaluation of the epithelial-to- mesenchymal inhibitory activity of indazole-derived imidazoles as dual ALK5/p38α MAP inhibitors” (Eur J Med Chem, 2021).
Activity calls are given as the source filed them. No cut-off for these calls is given here.

Assays:
[1] = biological target: Mitogen-activated protein kinase 14 (Homo sapiens, UniProt Q16539); experiment: Inhibition of recombinant human p38alpha expressed in Escherichia coli assessed as incoporation of [33]Pi after 60 mins in presence of [gamma-33P]-ATP by microplate scintillation counter method
Mitogen-activated protein kinase 14, sequence (Q16539 whole entry, the tested form may be a part): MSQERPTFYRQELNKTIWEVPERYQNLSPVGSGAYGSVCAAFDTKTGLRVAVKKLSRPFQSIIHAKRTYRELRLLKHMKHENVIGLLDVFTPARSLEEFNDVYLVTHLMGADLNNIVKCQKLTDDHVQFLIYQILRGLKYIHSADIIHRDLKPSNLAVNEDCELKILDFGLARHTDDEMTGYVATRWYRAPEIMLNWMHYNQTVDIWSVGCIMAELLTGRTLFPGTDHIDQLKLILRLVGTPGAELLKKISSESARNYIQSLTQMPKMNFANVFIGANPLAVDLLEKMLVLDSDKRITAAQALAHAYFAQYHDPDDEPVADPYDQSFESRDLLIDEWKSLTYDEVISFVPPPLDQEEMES

[2] = biological target: T1, TGF-beta receptor type-1 (Homo sapiens, UniProt P36897); experiment: Inhibition of recombinant human GST-fused ALK5 expressed in baculovirus infected Sf9 cells assessed as incoporation of [33]Pi after 60 mins in presence of [gamma-33P]-ATP by microplate scintillation counter method
T1 sequence (P36897 whole entry): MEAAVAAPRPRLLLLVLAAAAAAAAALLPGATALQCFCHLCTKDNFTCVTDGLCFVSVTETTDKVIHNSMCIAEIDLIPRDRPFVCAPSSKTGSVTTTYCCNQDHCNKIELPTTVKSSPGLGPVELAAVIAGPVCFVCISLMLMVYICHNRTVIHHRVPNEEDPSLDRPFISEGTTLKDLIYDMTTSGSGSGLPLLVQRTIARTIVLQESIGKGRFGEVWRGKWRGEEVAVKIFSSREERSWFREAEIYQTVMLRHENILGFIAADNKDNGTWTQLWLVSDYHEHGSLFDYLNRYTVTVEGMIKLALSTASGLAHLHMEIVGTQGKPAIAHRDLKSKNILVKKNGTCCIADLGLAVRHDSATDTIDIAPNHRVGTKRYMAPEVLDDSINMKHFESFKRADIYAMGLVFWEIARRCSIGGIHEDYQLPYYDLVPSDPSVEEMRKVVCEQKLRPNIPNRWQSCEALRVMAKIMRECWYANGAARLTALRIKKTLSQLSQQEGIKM

[3] = biological target: T2, TGF-beta receptor type-1 (Homo sapiens) (UniProt P36897); experiment: Potency index, ratio of LY-2157299 IC50 to test compound IC50 for recombinant human GST-fused ALK5 expressed in baculovirus infected Sf9 cells assessed as incoporation of [33]Pi after 60 mins in presence of [gamma-33P]-ATP by microplate scintillation counter method
T2 sequence (whole entry): T1 sequence (P36897 whole entry)

[4] = test system: U-87MG ATCC; experiment: Inhibition of TGF-beta-induced morphological changes in human U-87MG cells at 0.1 to 1 uM after 48 hrs; type: functional, cell-based; conditions: dose 0.1-1 µM
[5] = test system: U-87MG ATCC; experiment: Reversal of TGF-beta-induced epithelial-mesenchymal transition in human U-87MG cells assessed as reduction in vimentin protein level at 0.1 to 0.5 uM after 48 hrs by Western blotting analysis; type: functional, cell-based; conditions: dose 0.1-0.5 µM
[6] = test system: U-87MG ATCC; experiment: Reversal of TGF-beta-induced epithelial-mesenchymal transition in human U-87MG cells assessed as reduction in N-cadherin protein level at 0.1 to 0.5 uM after 48 hrs by Western blotting analysis; type: functional, cell-based; conditions: dose 0.1-0.5 µM
[7] = test system: U-87 MG; experiment: Inhibition of epithelial-mesenchymal transition in human U-87MG cells assessed as reduction in TGF-beta stimulated Slug protein expression after 48 hrs by Western blot anlaysis; type: functional, cell-based; conditions: U-87MG ATCC, dose 0.5-1 µM
[8] = biological target: T2, TGF-beta receptor type-1 (Homo sapiens); experiment: Potency index, ratio of EW-7197 IC50 to test compound IC50 for recombinant human GST-fused ALK5 expressed in baculovirus infected Sf9 cells assessed as incoporation of [33]Pi after 60 mins in presence of [gamma-33P]-ATP by microplate scintillation counter method
[9] = test system: U-87MG ATCC; experiment: Reversal of TGF-beta-induced epithelial-mesenchymal transition in human U-87MG cells assessed as reduction in vimentin mRNA level at 1 uM after 48 hrs by RT-PCR analysis; type: functional, cell-based
[10] = test system: U-87MG ATCC; experiment: Reversal of TGF-beta-induced epithelial-mesenchymal transition in human U-87MG cells assessed as downregulation of N-cadherin expression at 1 uM after 48 hrs by immunofluorescence assay; type: functional, cell-based
[11] = test system: U-87 MG; experiment: Inhibition of epithelial-mesenchymal transition in human U-87MG cells assessed as reduction in TGF-beta stimulated nuclear translocation of slug at 1 uM pretreated with compound followed by TGFbeta stimulation and measured after 48 hrs by immunofluorescence assay; type: functional, cell-based; conditions: U-87MG ATCC
[12] = test system: U-87MG ATCC; experiment: Inhibition of TGF-beta-induced cell invasion in human U-87MG cells at 1 uM incubated for 24 hrs by crystal violet staining based matrigel transwell assay; type: functional
[13] = test system: U-87MG ATCC; experiment: Reversal of TGF-beta-induced epithelial-mesenchymal transition in human U-87MG cells assessed as reduction in N-cadherin mRNA level at 1 uM after 48 hrs by RT-PCR analysis; type: functional, cell-based
[14] = test system: U-87 MG; experiment: Inhibition of TGF-beta-induced cell migration in human U-87MG cells at 1 uM incubated for 36 hrs by bright field microscopy based wound healing assay; type: functional; conditions: U-87MG ATCC

IC50 [1] [nM]	IC50 [2] [nM]	Ratio IC50 [3]	Compound	other results
26	11	3.8	Cc1cccc(-c2[nH]c(CNc3cccc(F)c3)nc2-c2ccc3c(cnn3C)c2)n1	
			Cc1cccc(-c2nn3c(c2-c2ccnc4ccc(C(N)=O)cc24)CCC3)n1	inhibition [4]: Active; Activity [5]: Active; Activity [6]: Active; inhibition [7]: Dose-dependent effect
66	14	3.8	Cc1cccc(-c2[nH]c(CNc3ccccc3)nc2-c2ccc3c(cnn3C)c2)n1	
13	4	32.3	Cc1cccc(-c2[nH]c(CNc3ccccc3)nc2-c2ccc3[nH]ncc3c2)n1	Ratio IC50 [8]: 3.5
52	6	3.8	Cc1cccc(-c2[nH]c(CNc3ccc(F)cc3)nc2-c2ccc3[nH]ncc3c2)n1	
71	24	3.8	Cc1cccc(-c2[nH]c(CNc3ccccc3C)nc2-c2ccc3c(cnn3C)c2)n1	
4	4		Cc1cccc(-c2[nH]c(CNc3cccc(F)c3)nc2-c2ccc3[nH]ncc3c2)n1	Activity [9]: Active; Activity [10]: Active; inhibition [11]: Active; inhibition [12]: Active; inhibition [4]: Active; Activity [13]: Active; Activity [5]: Active; Activity [6]: Active; inhibition [7]: Dose-dependent effect; inhibition [14]: Active
32	8	3.8	Cc1cccc(NCc2nc(-c3ccc4[nH]ncc4c3)c(-c3cccc(C)n3)[nH]2)c1	
23	10		Cc1cccc(NCc2nc(-c3ccc4c(cnn4C)c3)c(-c3cccc(C)n3)[nH]2)c1	
95	13		Cc1cccc(-c2[nH]c(CNc3ccccc3F)nc2-c2ccc3c(cnn3C)c2)n1	
329	9		Cc1ccc(NCc2nc(-c3ccc4[nH]ncc4c3)c(-c3cccc(C)n3)[nH]2)cc1	
565	34	3.8	Cc1ccc(NCc2nc(-c3ccc4c(cnn4C)c3)c(-c3cccc(C)n3)[nH]2)cc1	
112	16	3.8	Cc1cccc(-c2[nH]c(CNc3ccc(F)cc3)nc2-c2ccc3c(cnn3C)c2)n1	
23	5		Cc1cccc(-c2[nH]c(CNc3ccccc3C)nc2-c2ccc3[nH]ncc3c2)n1	
20	5		Cc1cccc(-c2[nH]c(CNc3ccccc3F)nc2-c2ccc3[nH]ncc3c2)n1	
